Data reported in US20140011700A1 (Bristol-Myers Squibb Company, published 2014).

Key:
Type in all cases: cell-based, Influenza A
[1] = system: A/WSN/33 N309K
[2] = system: A/WSN/33 Y52H
[3] = system: A/WSN/33 N309T
[4] = system: A/WSN/33 Y289H

| Compound | EC50 [1] | EC50 [2] | EC50 [3] | EC50 [4] |
| --- | --- | --- | --- | --- |
| Cc1cc(Br)cnc1N1CCN(C(=O)c2c(-c3ccccc3Cl)noc2C)CC1 [Compound D] | > 20 µM | > 20 µM | > 20 µM | > 20 µM |
| COc1ccccc1-c1noc(C)c1C(=O)N1CCN(c2ccc([N+](=O)[O-])cc2Cl)CC1 [Compound B] | > 20 µM | 8.15 µM | 3.5 µM | > 20 µM |
